Data as given in patent publication US10407422B2, “Triazolopyridine inhibitors of myeloperoxidase” (priority 2015, dated 2019).

Columns and labels:
myeloperoxidase (MPO) [1] = molecular target: T1, myeloperoxidase (MPO) (Homo sapiens (Human), UniProt P05164); assay: MPO peroxidation assay (Amplex Red assay); assay type: biochemical; details: potency range class
Summary of the method: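 Human MPO at 200 pM with 40 nM H2O2 preincubated 10 min at room temperature with inhibitor in 100 mM KPi pH 7.4. Reaction started with Amplex Red mixture (200 μM Amplex Red, 10 mM H2O2); resorufin fluorescence (Ex 535, Em 590 nm) read kinetically for 15 min. IC50 fitted from slopes over 180-540 s.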

myeloperoxidase (MPO) [2] = molecular target: T1, myeloperoxidase (MPO); assay: MPO chlorination assay (APF assay); assay type: biochemical; details: potency range class
Summary of the method: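 Human MPO (200 pM) preincubated 10 min at room temperature with inhibitor and 120 mM NaCl in 100 mM KPi pH 7.4. Reaction started with APF plus 10 μM H2O2, and hypochlorite-generated fluorescein read kinetically (ex 485/em 535 nm) for 3 min. IC50 from linear-phase slopes fitted to a four-parameter equation.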

T1 sequence (P05164 49-745): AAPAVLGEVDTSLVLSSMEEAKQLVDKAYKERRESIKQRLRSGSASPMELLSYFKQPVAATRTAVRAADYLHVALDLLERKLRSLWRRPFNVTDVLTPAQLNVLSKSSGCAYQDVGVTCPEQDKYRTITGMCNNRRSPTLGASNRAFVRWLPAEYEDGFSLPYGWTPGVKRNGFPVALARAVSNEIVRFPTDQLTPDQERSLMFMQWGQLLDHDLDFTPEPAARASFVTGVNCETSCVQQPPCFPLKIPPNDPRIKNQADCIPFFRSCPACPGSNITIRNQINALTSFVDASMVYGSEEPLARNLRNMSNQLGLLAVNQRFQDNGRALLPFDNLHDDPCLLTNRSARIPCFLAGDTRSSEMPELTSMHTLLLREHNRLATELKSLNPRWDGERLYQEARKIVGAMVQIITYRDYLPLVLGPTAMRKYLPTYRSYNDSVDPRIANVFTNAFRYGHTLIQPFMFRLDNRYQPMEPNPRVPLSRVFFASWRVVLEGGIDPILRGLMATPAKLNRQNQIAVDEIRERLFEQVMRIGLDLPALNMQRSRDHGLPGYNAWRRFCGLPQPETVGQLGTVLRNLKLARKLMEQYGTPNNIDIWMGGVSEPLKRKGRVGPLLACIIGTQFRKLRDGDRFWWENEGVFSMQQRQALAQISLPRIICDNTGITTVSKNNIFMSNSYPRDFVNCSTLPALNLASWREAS

| Structure (SMILES) | IC50 (myeloperoxidase (MPO) [1]) [nM] | IC50 (myeloperoxidase (MPO) [2]) [nM] |
| --- | --- | --- |
| Nc1cc(Cc2cnn(C(CCO)c3ccccc3)c2)c2nn[nH]c2n1 (centres unmarked) [Example 143, 3-(4-((5-Amino-3H-[1,2,3]triazolo[4,5-b]pyridin-7-yl)methyl)-1H-pyrazol-1-yl)-3-phenylpropan-1-ol] | 101 to 999 | 101 to 999 |
| Nc1cc(Cc2cn(Cc3cccc(C4CCNCC4)c3)nc2C(F)(F)F)c2nn[nH]c2n1 [Example 284, 7-((1-(3-(Piperidin-4-yl)benzyl)-3-(trifluoromethyl)-1H-pyrazol-4-yl)methyl)-3H-[1,2,3]triazolo[4,5-b]pyridin-5-amine] | 101 to 999 | 101 to 999 |
| Nc1cc(Cc2cnn(Cc3ccc(C(=O)NCc4ncn[nH]4)cc3)c2)c2nn[nH]c2n1 [Example 81, 4-{[4-({5-Amino-3H-[1,2,3]triazolo[4,5-b]pyridin-7-yl}methyl)-1H-pyrazol-1-yl]methyl}-N-(1H-1,2,4-triazol-5-ylmethyl)benzamide] | 1 to 100 | 101 to 999 |
| Nc1cc(Cn2ncc(-c3ccccc3)n2)c2nn[nH]c2n1 [Example 161, 7-[(4-Phenyl-2H-1,2,3-triazol-2-yl)methyl]-3H-[1,2,3]triazolo[4,5-b]pyridin-5-amine] | 101 to 999 | 1000 to 10000 |
| CN1CCN(C(=O)c2ccc(Cn3cc(Cc4cc(N)nc5[nH]nnc45)cn3)cc2)CC1 [Example 85, 7-[(1-{[4-(4-Methylpiperazine-1-carbonyl)phenyl]methyl}-1H-pyrazol-4-yl)methyl]-3H-[1,2,3]triazolo[4,5-b]pyridin-5-amine] | 1 to 100 | 101 to 999 |

The remaining lines, values ahead:

| IC50 (myeloperoxidase (MPO) [1]) [nM] | IC50 (myeloperoxidase (MPO) [2]) [nM] | Structure (SMILES) |
| --- | --- | --- |
| 1 to 100 | 101 to 999 | Nc1cc(Cc2cnn(Cc3ccccc3OCc3ccccc3)c2)c2nn[nH]c2n1 [Example 263, 7-[(1-{[2-(Benzyloxy)phenyl]methyl}-1H-pyrazol-4-yl)methyl]-3H-[1,2,3]triazolo[4,5-b]pyridin-5-amine] |
| 1 to 100 | 101 to 999 | CN(C)CC(=O)NCc1ccc(Cn2cc(Cc3cc(N)nc4[nH]nnc34)cn2)cc1 [Example 251, N-[(4-{[4-({5-Amino-3H-[1,2,3]triazolo[4,5-b]pyridin-7-yl}methyl)-1H-pyrazol-1-yl]methyl}phenyl)methyl]-2-(dimethylamino)acetamide] |
| 1 to 100 | 1 to 100 | Nc1cc(Cc2cnn(Cc3ccccc3Cc3ccccc3)c2)c2nn[nH]c2n1 [Example 265, 7-({1-[(2-Benzylphenyl)methyl]-1H-pyrazol-4-yl}methyl)-3H-[1,2,3]triazolo[4,5-b]pyridin-5-amine] |
| 1 to 100 | 101 to 999 | Nc1cc(Cc2cnn(CCC3CCNCC3)c2)c2nn[nH]c2n1 [Example 183, 7-({1-[2-(Piperidin-4-yl)ethyl]-1H-pyrazol-4-yl}methyl)-3H-[1,2,3]triazolo[4,5-b]pyridin-5-amine] |
| 1 to 100 | 101 to 999 | Cc1nc(-c2cccc(Cn3cc(Cc4cc(N)nc5[nH]nnc45)cn3)c2)no1 [Example 59, 7-((1-(3-(5-Methyl-1,2,4-oxadiazol-3-yl)benzyl)-1H-pyrazol-4-yl)methyl)-3H-[1,2,3]triazolo[4,5-b]pyridin-5-amine] |
